{"source": "patent US6605628B1", "about": "“Method of using 5-(arysulfonyl)-, 5-(arylsulfanyl)-and 5-(arylsulfanyl)thiazolidine-2,4-diones for inhibition of farnesyl-protein transferase” (Wyeth Holdings Corporation, priority 2001, dated 2003)", "key": {"[1]": {"test_system": "K-ras dependent human colon carcinoma (LoVo)", "assay": "in vivo effects against K-ras dependent human colon carcinoma (LoVo)", "conditions": "for S/T = No. Survivors/No.Treated: Day +35 post tumor cell implantation", "description": "[…] For the compound of example 114, when tested against a K-ras dependent human colon carcinoma (LoVo), the following results were obtained (Table III):"}, "[2]": {"biological_target": "T1, FPTase (Homo sapiens, UniProt P49354+P49356)", "assay": "in vitro FTase Inhibition Assay, H-Ras used as substrate for farnesylation", "type": "biochemical", "conditions": "Table I, read-out: IC50 H-Ras*"}, "[3]": {"biological_target": "T1, FPTase", "assay": "in vitro FTase Inhibition Assay, K-Ras used as substrate for farnesylation", "type": "biochemical", "conditions": "Table I"}, "[4]": {"conditions": "50 mg/kg per dose IP, BID days 1 through 20, control 0.5% Methocel 0.4% Tween 80"}, "[5]": {"conditions": "75 mg/kg per dose IP, BID days 1 through 20, control 0.5% Methocel 0.4% Tween 80"}, "[6]": {"conditions": "100 mg/kg per dose IP, once a day on days 1 through 20, control 0.5% Methocel 0.4% Tween 80"}, "[7]": {"conditions": "100 mg/kg per dose PO, BID days 1 through 20, control 0.5% Methocel 0.4% Tween 80"}, "[8]": {"conditions": "100 mg/kg per dose PO, BID days 1 through 20, control 20% BCD in 1.1N HCl"}, "[9]": {"conditions": "75* mg/kg per dose IP, BID days 1 through 20, prepared in 2% Tween 80 in D5W, control 2% Tween in D5W"}}}
{"compound": "COc1ccc(SC2(CCCCCCCCCC#Cc3ccc(Cl)cc3)SC(=O)NC2=O)cc1", "note": "(stereo not drawn) [Example 94, 5-[11-(4-Chlorophenyl)undec-10-ynyl]-5-(4-methoxy-phenylsulfanyl)-thiazolidine-2,4-dione]", "values": [{"measurement": "melting point", "value": "54 to 56", "unit": "°C"}]}
{"compound": "COc1ccc(S(=O)(=O)C2(CCCCC#Cc3ccc(Cl)cc3)SC(=O)NC2=O)cc1", "note": "(stereo not drawn) [Example 98, 5-[6-(4-Chlorophenyl)hex-5-ynyl]-5-(4-methoxyphenylsulfonyl)-thiazolidine-2,4-dione]", "values": [{"measurement": "melting point", "value": "145 to 148", "unit": "°C"}]}
{"compound": "COc1ccc(S(=O)(=O)C2(CCCC#Cc3cc(Cl)ccc3Cl)SC(=O)NC2=O)cc1", "note": "(stereo not drawn) [Example 114, 5-[5-(2,5-Dichloro-phenyl)pent-4-ynyl]-5-(4-methoxy-benzenesulfonyl)-thiazolidine-2,4-dione]", "values": [{"measurement": "% T/C, Day8", "setting": "[1]; [4]", "value": 74, "unit": "%"}, {"measurement": "% T/C, Day 15", "setting": "[1]; [4]", "value": 47, "unit": "%"}, {"measurement": "% T/C, Day 22", "setting": "[1]; [4]", "value": 43, "unit": "%"}, {"measurement": "% T/C, Day 29", "setting": "[1]; [4]", "value": 59, "unit": "%"}, {"measurement": "% T/C, Day 36", "setting": "[1]; [4]", "value": 76, "unit": "%"}, {"measurement": "Mean Tumor Weight, Day8", "setting": "[1]; [4]", "value": 65, "unit": "mg"}, {"measurement": "Mean Tumor Weight, Day 15", "setting": "[1]; [4]", "value": 146, "unit": "mg"}, {"measurement": "Mean Tumor Weight, Day 22", "setting": "[1]; [4]", "value": 258, "unit": "mg"}, {"measurement": "Mean Tumor Weight, Day 29", "setting": "[1]; [4]", "value": 445, "unit": "mg"}, {"measurement": "Mean Tumor Weight, Day 36", "setting": "[1]; [4]", "value": 964, "unit": "mg"}, {"measurement": "S/T = No. Survivors/No.Treated", "setting": "[1]; [4]", "value": "5/10"}, {"measurement": "% T/C, Day8", "setting": "[1]; [5]", "value": 51, "unit": "%"}, {"measurement": "% T/C, Day 15", "setting": "[1]; [5]", "value": 36, "unit": "%"}, {"measurement": "% T/C, Day 22", "setting": "[1]; [5]", "value": 43, "unit": "%"}, {"measurement": "% T/C, Day 29", "setting": "[1]; [5]", "value": 67, "unit": "%"}, {"measurement": "% T/C, Day 36", "setting": "[1]; [5]", "value": 60, "unit": "%"}, {"measurement": "Mean Tumor Weight, Day8", "setting": "[1]; [5]", "value": 45, "unit": "mg"}, {"measurement": "Mean Tumor Weight, Day 15", "setting": "[1]; [5]", "value": 110, "unit": "mg"}, {"measurement": "Mean Tumor Weight, Day 22", "setting": "[1]; [5]", "value": 255, "unit": "mg"}, {"measurement": "Mean Tumor Weight, Day 29", "setting": "[1]; [5]", "value": 504, "unit": "mg"}, {"measurement": "Mean Tumor Weight, Day 36", "setting": "[1]; [5]", "value": 764, "unit": "mg"}, {"measurement": "S/T = No. Survivors/No.Treated", "setting": "[1]; [5]", "value": "8/10"}, {"measurement": "% T/C, Day8", "setting": "[1]; [6]", "value": 35, "unit": "%"}, {"measurement": "% T/C, Day 15", "setting": "[1]; [6]", "value": 41, "unit": "%"}, {"measurement": "% T/C, Day 22", "setting": "[1]; [6]", "value": 42, "unit": "%"}, {"measurement": "% T/C, Day 29", "setting": "[1]; [6]", "value": 46, "unit": "%"}, {"measurement": "% T/C, Day 36", "setting": "[1]; [6]", "value": 44, "unit": "%"}, {"measurement": "Mean Tumor Weight, Day8", "setting": "[1]; [6]", "value": 31, "unit": "mg"}, {"measurement": "Mean Tumor Weight, Day 15", "setting": "[1]; [6]", "value": 125, "unit": "mg"}, {"measurement": "Mean Tumor Weight, Day 22", "setting": "[1]; [6]", "value": 251, "unit": "mg"}, {"measurement": "Mean Tumor Weight, Day 29", "setting": "[1]; [6]", "value": 341, "unit": "mg"}, {"measurement": "Mean Tumor Weight, Day 36", "setting": "[1]; [6]", "value": 559, "unit": "mg"}, {"measurement": "S/T = No. Survivors/No.Treated", "setting": "[1]; [6]", "value": "9/10"}, {"measurement": "% T/C, Day8", "setting": "[1]; [7]", "value": 70, "unit": "%"}, {"measurement": "% T/C, Day 15", "setting": "[1]; [7]", "value": 77, "unit": "%"}, {"measurement": "% T/C, Day 22", "setting": "[1]; [7]", "value": 76, "unit": "%"}, {"measurement": "% T/C, Day 29", "setting": "[1]; [7]", "value": 81, "unit": "%"}, {"measurement": "% T/C, Day 36", "setting": "[1]; [7]", "value": 74, "unit": "%"}, {"measurement": "Mean Tumor Weight, Day8", "setting": "[1]; [7]", "value": 61, "unit": "mg"}, {"measurement": "Mean Tumor Weight, Day 15", "setting": "[1]; [7]", "value": 238, "unit": "mg"}, {"measurement": "Mean Tumor Weight, Day 22", "setting": "[1]; [7]", "value": 454, "unit": "mg"}, {"measurement": "Mean Tumor Weight, Day 29", "setting": "[1]; [7]", "value": 608, "unit": "mg"}, {"measurement": "Mean Tumor Weight, Day 36", "setting": "[1]; [7]", "value": 934, "unit": "mg"}, {"measurement": "S/T = No. Survivors/No.Treated", "setting": "[1]; [7]", "value": "10/10"}, {"measurement": "% T/C, Day8", "setting": "[1]; [8]", "value": 81, "unit": "%"}, {"measurement": "% T/C, Day 15", "setting": "[1]; [8]", "value": 95, "unit": "%"}, {"measurement": "% T/C, Day 22", "setting": "[1]; [8]", "value": 88, "unit": "%"}, {"measurement": "% T/C, Day 29", "setting": "[1]; [8]", "value": 128, "unit": "%"}, {"measurement": "% T/C, Day 36", "setting": "[1]; [8]", "value": 107, "unit": "%"}, {"measurement": "Mean Tumor Weight, Day8", "setting": "[1]; [8]", "value": 50, "unit": "mg"}, {"measurement": "Mean Tumor Weight, Day 15", "setting": "[1]; [8]", "value": 138, "unit": "mg"}, {"measurement": "Mean Tumor Weight, Day 22", "setting": "[1]; [8]", "value": 299, "unit": "mg"}, {"measurement": "Mean Tumor Weight, Day 29", "setting": "[1]; [8]", "value": 641, "unit": "mg"}, {"measurement": "Mean Tumor Weight, Day 36", "setting": "[1]; [8]", "value": 872, "unit": "mg"}, {"measurement": "S/T = No. Survivors/No.Treated", "setting": "[1]; [8]", "value": "9/10"}, {"measurement": "% T/C, Day8", "setting": "[1]; [9]", "value": 221, "unit": "%"}, {"measurement": "% T/C, Day 15", "setting": "[1]; [9]", "value": 150, "unit": "%"}, {"measurement": "% T/C, Day 22", "setting": "[1]; [9]", "value": 163, "unit": "%"}, {"measurement": "% T/C, Day 29", "setting": "[1]; [9]", "value": 167, "unit": "%"}, {"measurement": "% T/C, Day 36", "setting": "[1]; [9]", "value": 157, "unit": "%"}, {"measurement": "Mean Tumor Weight, Day8", "setting": "[1]; [9]", "value": 86, "unit": "mg"}, {"measurement": "Mean Tumor Weight, Day 15", "setting": "[1]; [9]", "value": 182, "unit": "mg"}, {"measurement": "Mean Tumor Weight, Day 22", "setting": "[1]; [9]", "value": 324, "unit": "mg"}, {"measurement": "Mean Tumor Weight, Day 29", "setting": "[1]; [9]", "value": 478, "unit": "mg"}, {"measurement": "Mean Tumor Weight, Day 36", "setting": "[1]; [9]", "value": 666, "unit": "mg"}, {"measurement": "S/T = No. Survivors/No.Treated", "setting": "[1]; [9]", "value": "10/10"}, {"measurement": "IC50", "setting": "[2]", "value": "13 to 32", "unit": "nM"}, {"measurement": "IC50", "setting": "[3]", "value": "32 to 320", "unit": "nM"}]}
{"compound": "COC(=O)c1ccc(C#CCCCC2(S(=O)(=O)c3ccc(OC)cc3)SC(=O)NC2=O)c(C)c1", "note": "(stereo not drawn) [Example 160, 4-{5-[5-(4-Methoxybenzenesulfonyl)-2,4-dioxothiazolidin-5-yl]pent-1-ynyl}-3-methylbenzoic Acid Methyl Ester]", "values": [{"measurement": "melting point", "value": "128 to 130", "unit": "°C"}]}
{"compound": "COc1ccc(S(=O)(=O)C2(CCCC#Cc3ccc(-n4cccc4)cc3)SC(=O)NC2=O)cc1", "note": "(stereo not drawn) [Example 161, 5-(4-Methoxybenzenesulfonyl)-5-[5-(4-pyrrol-1-yl-phenyl)pent-4-ynyl]-thiazolidine-2,4-dione]", "values": [{"measurement": "IC50", "setting": "[2]", "value": 900, "unit": "nM"}, {"measurement": "melting point", "value": "206 to 207", "unit": "°C"}]}
{"compound": "O=C1NC(=O)C(CCCC#Cc2ccc(-n3cccc3)cc2)(S(=O)(=O)c2ccc(OC(F)(F)F)cc2)S1", "note": "(stereo not drawn) [Example 163, 5-[5-(4-Pyrrol-1-ylphenyl)pent-4-ynyl]-5-(4-trifluoromethoxybenzenesulfonyl)-thiazolidine-2,4-dione]", "values": [{"measurement": "IC50", "setting": "[2]", "value": 1300, "unit": "nM"}, {"measurement": "melting point", "value": "204 to 206", "unit": "°C"}]}
